In PubChem BioAssay AID1918953 (Molecular Pharmacology Branch, DTP, NCI, 2023) one finds IC50 and viability, T/C data, which are given here for four compounds.

pIC50: −log10 of the molar value. Where “and” joins values, the source holds several entries; their conditions need not be identical. Equal values may be shown once.

For the test, the system named is MDA-MB-231 complex spheroid viability. Briefly: Anticancer human tumor MDA-MB-231/ATCC cell line growth inhibition.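 On all read-outs here: drug exposure lasted 7 days starting on day 3 of spheroid growth.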 The settings on record: for viability, T/C: stronger effect = lower value. From the text:
Multicellular complex tumor spheroid response to LSD1 Inhibitor Iadademstat in combination with a variety of drugs and investigational agents in selected tumor cell lines
The current study was undertaken to assess response to LSD1 inhibitors in combination with standard-of-care drugs and investigational agents in solid tumor complex spheroid models as well as in the K-562 leukemia. Complex spheroids include a stromal component modeled by human endothelial cells (HUVEC) and fibroblasts modeled by human mesenchymal stem cells (MSCs). The concentration ranges selected for each drug and investigational agent were based upon clinically achievable concentrations if the clinical Cmax of the agent was known.
Compounds. The drugs and investigational agents used in this study are listed on Table 1. All of the agents used, including staurosporine (NSC755774) and gemcitabine (NSC613327), were obtained from the Developmental Therapeutics Program, NCI. FDA-approved anticancer drugs are available from the NCI at http://dtp.nci.nih.gov/branches/dscb/oncology_drugset_explanation.html. Drugs and investigational agents were >95% pure by proton nuclear magnetic resonance (NMR) and liquid chromatography/mass spectrometry (LC/MS). Stock solutions were prepared at 400x in DMSO, stored at -70 degrees C, and diluted in fresh medium prior to their use. The final concentration of DMSO in cell culture wells never exceeded 0.25% (v/v). The FDA-approved anticancer drug set is available from the Developmental Therapeutics Program at https://dtp.cancer.gov/organization/dscb/obtaining/available_plates.htm. All drugs and investigational agents were tested over a range starting from a high concentration at or near the clinical Cmax and decreasing in half-log increments. If the clinical Cmax for an agent had not been determined, the highest concentration tested was 10 microM.
Cell Lines. The patient-derived cancer cell (PDC) lines: 292921-168-R-J2-PDC, K24384-001-R-PDC, and 521955-158-R2-J5-PDC pancreatic carcinomas, 556581-035-R-J1 ovarian carcinoma, 324938-238-R-J1-PDC, 855422-203-R-J1-PDC and 883617-216-R-J1-PDC urothelial bladder carcinomas, 743489-274-T-PDC renal cell carcinoma, 138582-R-J1 Merkel cell tumor, K60290-347-R-J1 and K57222-313-R-J1-PDC glioblastomas, 653999-131-R-J2-PDC, LG0703-F948-PDC, and 349418-098-R-PDC non-small cell lung carcinomas, 885512-296-R-J2-PDC, 171881-019-R-J1-PDC breast carcinomas and 186277-243-T-J2-PDC and 233499-124-R-J2-PDC colon carcinomas were obtained from the NCI Patient-Derived Models Repository (PDMR, https://pdmr.cancer.gov). The established cell lines NCI/ADR-RES (RRID:CVCL_14520 and OVCAR-5 (RRID:CVCL_1628) ovarian carcinomas, 786-O (RRID:CVCL_1051) and A498 (RRID:CVCL_A498) renal cell carcinoma, NCI-H211 (ATCC, cat. CRL-5824; RRID:CVCL_1529), NCI-H196 (ATCC, cat. CRL-5823, RRID:CVCL_1509), SW 1271 (ATCC, cat. CRL-2177, RRID:CVCL_1716) and NCI-H1876 (ATCC, cat. CRL-5902, RRID:CVCL_1503) small cell lung carcinomas, MDA-MB-231 (RRID:CVCL_0062) and MDA-MB-468 (RRID:CVCL_0419)breast carcinomas (10-12). Pooled donor human umbilical vein endothelial cells (HUVEC, Lonza, cat. CC-2519) and human mesenchymal stem cells (hMSC, Lonza, cat. PT-2501) were purchased from Lonza (Walkersville, MD).
Cell Culture. All cells were maintained in an incubator at 37 degrees C and 5% CO2 with 95% humidity. The PDC lines were cultured according to standard operating procedures established by the NCI PDMR (https://pdmr.cancer.gov). Briefly all PDCs were thawed and cultured in Matrigel-coated flasks prepared with a working solution of 1X Ham's F-12 nutrient mix, without supplementation (Invitrogen, Waltham, MA, cat. 11765054), 100 U/mL penicillin-streptomycin (Invitrogen, cat. 15140122), and 2.5% Matrigel (Corning Inc., Corning, NY, cat. 354248) for the first three passages. […]

The mark [1] stands for this setting: curve of first compound, second compound 0.1 µM.
Where [2] appears, read: curve of first compound, second compound 0.316 µM.
Where [3] appears, read: curve of first compound, second compound 1 µM.
The mark [4] stands for this setting: curve of first compound, second compound 3.16 µM.
Where [5] appears, read: curve of first compound, second compound 10 µM.

As to `Nc1ccccc1NC(=O)c1ccc(CNC(=O)OCc2cccnc2)cc1` + NC1CCC(NC2CC2c2ccccc2)CC1, the pIC50 (commonly −log10 of the IC50, conventionally taken in molar units) under setting [1] is 7.21; the pIC50 under setting [2] was 7.18; the pIC50 under setting [3] was 7.29; the negative logarithm of the IC50 (pIC50) under setting [4] was 7.41; the pIC50 under setting [5] was 7.58. Further, the viability, T/C (usually the result in the treated group divided by that in the control group, in per cent) is 89.4% (second compound 0.1 µM, first compound 0.00949 µM); 61% (second compound 0.1 µM, first compound 0.03 µM); 39% (second compound 0.1 µM, first compound 0.0949 µM); 31.5% (second compound 0.1 µM, first compound 0.3 µM); 15.9% (second compound 0.1 µM, first compound 0.949 µM); 3.58% (second compound 0.1 µM, first compound 3 µM). The viability, T/C is 86.2% (second compound 0.316 µM, first compound 0.00949 µM); 64.6% (second compound 0.316 µM, first compound 0.03 µM); 39.6% (second compound 0.316 µM, first compound 0.0949 µM); 29.4% (second compound 0.316 µM, first compound 0.3 µM); 16.3% (second compound 0.316 µM, first compound 0.949 µM); 2.82% (second compound 0.316 µM, first compound 3 µM). In addition, the viability, T/C is 85% (second compound 1 µM, first compound 0.00949 µM); 58% (second compound 1 µM, first compound 0.03 µM); 37% (second compound 1 µM, first compound 0.0949 µM); 26.4% (second compound 1 µM, first compound 0.3 µM); 14.3% (second compound 1 µM, first compound 0.949 µM); 2.97% (second compound 1 µM, first compound 3 µM). Besides, the viability, T/C runs as follows: (second compound 3.16 µM, first compound 0.00949 µM) 72.7%; (second compound 3.16 µM, first compound 0.03 µM) 54.1%; (second compound 3.16 µM, first compound 0.0949 µM) 35.7%; (second compound 3.16 µM, first compound 0.3 µM) 20.6%; (second compound 3.16 µM, first compound 0.949 µM) 10.1%; (second compound 3.16 µM, first compound 3 µM) 1.4%. Moreover, the viability, T/C is 63.2% (second compound 10 µM, first compound 0.00949 µM); 47.7% (second compound 10 µM, first compound 0.03 µM); 32.2% (second compound 10 µM, first compound 0.0949 µM); 15.1% (second compound 10 µM, first compound 0.3 µM); 7.15% (second compound 10 µM, first compound 0.949 µM); 0.5% (second compound 10 µM, first compound 3 µM).
With `O=C(C=Cn1cnc(-c2cc(C(F)(F)F)cc(C(F)(F)F)c2)n1)NNc1cnccn1` + NC1CC1c1ccc(-c2cccc(O)c2)cc1, the pIC50 runs as follows: under setting [1], > 8.50; under setting [2], > 8.50; under setting [3], > 8.50; under setting [4], > 8.50; under setting [5], > 8.50. Moreover, the viability, T/C is 27.7% (second compound 0.1 µM, first compound 0.00316 µM); 27.4% (second compound 0.1 µM, first compound 0.01 µM); 13.1% (second compound 0.1 µM, first compound 0.0316 µM); 5.67% (second compound 0.1 µM, first compound 0.1 µM); 4.44% (second compound 0.1 µM, first compound 0.316 µM); 5.61% (second compound 0.1 µM, first compound 1 µM). Further, the viability, T/C is 28.6% (second compound 0.316 µM, first compound 0.00316 µM); 27.3% (second compound 0.316 µM, first compound 0.01 µM); 13.2% (second compound 0.316 µM, first compound 0.0316 µM); 5.36% (second compound 0.316 µM, first compound 0.1 µM); 5.11% (second compound 0.316 µM, first compound 0.316 µM); 5.35% (second compound 0.316 µM, first compound 1 µM). Besides, the viability, T/C is 25.6% (second compound 1 µM, first compound 0.00316 µM); 25.4% (second compound 1 µM, first compound 0.01 µM); 14.6% (second compound 1 µM, first compound 0.0316 µM); 4.77% (second compound 1 µM, first compound 0.1 µM); 4.77% (second compound 1 µM, first compound 0.316 µM); 4.71% (second compound 1 µM, first compound 1 µM). For the same compound, the viability, T/C was 27% (second compound 3.16 µM, first compound 0.00316 µM); 25% (second compound 3.16 µM, first compound 0.01 µM); 13.6% (second compound 3.16 µM, first compound 0.0316 µM); 5.37% (second compound 3.16 µM, first compound 0.1 µM); 6.01% (second compound 3.16 µM, first compound 0.316 µM); 4.79% (second compound 3.16 µM, first compound 1 µM). The viability, T/C is 22.5% (second compound 10 µM, first compound 0.00316 µM); 17.5% (second compound 10 µM, first compound 0.01 µM); 14.9% (second compound 10 µM, first compound 0.0316 µM); 5.78% (second compound 10 µM, first compound 0.1 µM); 6.15% (second compound 10 µM, first compound 0.316 µM); 7.13% (second compound 10 µM, first compound 1 µM).
Consider `Nc1ccccc1NC(=O)c1ccc(CNC(=O)OCc2cccnc2)cc1`, for which the viability, T/C by setting is: (compound 0.00949 µM) 81.5% and 86.7%; (compound 0.03 µM) 56.5% and 52.2%; (compound 0.0949 µM) 39.4% and 21.1%; (compound 0.3 µM) 28.1% and 12.2%; (compound 0.949 µM) 15.4% and 4.07%; (compound 3 µM) 3.56% and 0.18%. Moreover, the pIC50 (curve of compound) is 7.27 and 7.50.
For the compound `CC(C)CC(NC(=O)CNC(=O)c1cc(Cl)ccc1Cl)B1OC(=O)CC(CC(=O)O)(C(=O)O)O1` (centres undefined), the viability, T/C was 99% and 100% (compound 0.000316 µM); 104% and 105% (compound 0.001 µM); 85.2% and 70.2% (compound 0.00316 µM); 39.5% and 14.9% (compound 0.01 µM); 6.41% and 1.24% (compound 0.0316 µM); 0.95% and 0.27% (compound 0.1 µM). The pIC50 (curve of compound) is 8.12 and 8.32.
